Laboratory results: patent publication US11608335B2, “Somatostatin modulators and uses thereof” (CRINETICS PHARMACEUTICALS, INC., priority 2018, dated 2023)
Like-named read-outs stand apart in the source and are kept apart here.

What was measured:
[1] = target: T1, human somatostatin receptor subtype 4 (Homo sapiens, UniProt P31391); assay: cAMP assay for hSST4R (inhibition of cAMP via human SST4 receptor); assay type: cell-based; conditions: from inhibition of cAMP via human SST5 receptor and human SST4 receptor
T1 construct: expressed in transfected cells
Text: cAMP Assay Protocol hSST4R:

[2] = target: human somatostatin receptor subtype 5 (Homo sapiens, UniProt P35346); assay: cAMP assay for SST5R (inhibition of cAMP via human SST5 receptor)
[3] = target: T2, human somatostatin receptor subtype 2 (Homo sapiens, UniProt P30874); assay: cAMP assay for SST2R (inhibition of cAMP via human SST2 receptor); assay type: cell-based; conditions: Table B, read-out: SST2 potency
T2 construct: expressed in transfected cells
Text: cAMP Assay Protocol for SST2R:

[4] = read-out: SST5 potency, inhibition of cAMP via human SST5 receptor, Table B

Chain of human somatostatin receptor subtype 5 (P35346 whole entry): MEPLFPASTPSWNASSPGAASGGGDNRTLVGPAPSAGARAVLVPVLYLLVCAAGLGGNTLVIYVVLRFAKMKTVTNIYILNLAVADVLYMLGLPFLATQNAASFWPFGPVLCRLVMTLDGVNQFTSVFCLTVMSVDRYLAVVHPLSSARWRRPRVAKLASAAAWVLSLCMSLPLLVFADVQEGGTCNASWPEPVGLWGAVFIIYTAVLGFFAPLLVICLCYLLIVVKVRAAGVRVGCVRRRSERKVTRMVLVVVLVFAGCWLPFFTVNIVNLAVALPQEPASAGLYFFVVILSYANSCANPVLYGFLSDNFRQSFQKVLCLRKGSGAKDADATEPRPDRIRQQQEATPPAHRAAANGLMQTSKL
T2 sequence (P30874 whole entry): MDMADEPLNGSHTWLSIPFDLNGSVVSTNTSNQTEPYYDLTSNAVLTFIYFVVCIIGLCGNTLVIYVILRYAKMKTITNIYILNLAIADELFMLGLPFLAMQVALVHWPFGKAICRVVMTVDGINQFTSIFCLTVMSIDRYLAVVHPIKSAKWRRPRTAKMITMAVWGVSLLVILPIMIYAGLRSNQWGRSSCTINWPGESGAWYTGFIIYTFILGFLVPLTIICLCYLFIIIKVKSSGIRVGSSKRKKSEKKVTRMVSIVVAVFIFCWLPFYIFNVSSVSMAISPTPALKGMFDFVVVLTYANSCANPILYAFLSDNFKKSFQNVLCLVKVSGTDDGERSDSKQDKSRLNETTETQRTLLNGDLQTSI
T1 sequence (P31391 whole entry): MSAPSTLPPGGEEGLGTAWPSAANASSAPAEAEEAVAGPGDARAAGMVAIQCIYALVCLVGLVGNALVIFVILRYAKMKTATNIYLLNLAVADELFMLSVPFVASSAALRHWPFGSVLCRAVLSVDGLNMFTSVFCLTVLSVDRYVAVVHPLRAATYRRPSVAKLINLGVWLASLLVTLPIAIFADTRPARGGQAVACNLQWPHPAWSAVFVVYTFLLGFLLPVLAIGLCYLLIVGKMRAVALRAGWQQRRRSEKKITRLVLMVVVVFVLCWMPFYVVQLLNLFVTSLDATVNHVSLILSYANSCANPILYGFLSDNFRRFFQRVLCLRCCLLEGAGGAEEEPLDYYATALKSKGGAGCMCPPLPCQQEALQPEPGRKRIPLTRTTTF

Structure (SMILES)	Fold selectivity for SST5 vs SST4 [1] [fold]	EC50 [2] [nM]	EC50 [3] [nM]	Fold selectivity for SST5 vs SST2 ([2]; SST5 over SST2, class symbols)	EC50 [2, 4] [nM]	Fold selectivity for SST5 vs SST2 ([2]; SST5 over SST2, given as number (comparison compounds))
NCC1CN(c2c(-c3ccc4ccccc4c3)cncc2-c2nc3cc(F)cc(F)c3[nH]2)C1 [Compound 1-41, 1-{1-[3-(4,6-difluoro-1H-1,3-benzodiazol-2-yl)-5-(naphthalen-2-yl)pyridin-4-yl]azetidin-3-yl}methanamine]	8.8	100 to 1000	–	–	–	–
Cn1c(-c2cncc(-c3cccc(C#N)c3)c2N2CC[C@H](N)C2)nc2cccc(Cl)c21 [Compound 2-76, 3-{4-[(3S)-3-aminopyrrolidin-1-yl]-5-(7-chloro-1-methyl-1H-1,3-benzodiazol-2-yl)pyridin-3-yl}benzonitrile]	–	< 10	100 to 1000	+++ (+++=≥500)	< 10	–
Cc1c(F)ccc2nc(-c3cncc(-c4ccnc(C#N)c4)c3N3CC[C@](C)(N)C3)[nH]c12 [Compound 2-164, 4-[(3S)-3-amino-3-methylpyrrolidin-1-yl]-5-(5-fluoro-4-methyl-1H-1,3-benzodiazol-2-yl)-[3,4′-bipyridine]-2′-carbonitrile]	323	< 10	–	–	–	–
C[C@]1(N)CCN(c2c(-c3cccc(C#N)c3)cncc2-c2nc3cccc(C#N)c3[nH]2)C1 [Compound 2-177, 2-{4-[(3 S)-3-amino-3-methylpyrrolidin-1-yl]-5-(3-cyanophenyl)pyridin-3-yl}-1H-1,3-benzodiazole-7-carbonitrile]	–	< 10	100 to 1000	+++ (+++=≥500)	< 10	–
CC1(N)CCN(c2c(-c3cc(F)cc(C#N)c3)cncc2-c2nc3cccc(F)c3[nH]2)C1 (stereo not shown) [Compound 2-6, 3-[4-(3-amino-3-methylpyrrolidin-1-yl)-5-(4-fluoro-1H-1,3-benzodiazol-2-yl)pyridin-3-yl]-5-fluorobenzonitrile]	–	< 10	100 to 1000	+++ (+++=≥500)	< 10	–
Cc1ccnc2nc(-c3cncc(-c4cccc(Cl)c4)c3N3CC[C@](C)(N)C3)[nH]c12 [Compound 2-180, (3S)-1-[3-(3-chlorophenyl)-5-{7-methyl-1H-imidazo[4,5-b]pyridin-2-yl}pyridin-4-yl]-3-methylpyrrolidin-3-amine]	–	< 10	10 to 100	++ (++=100 to 499)	< 10	–
CC1(N)CCN(c2c(-c3ccnc(C#N)c3)cncc2-c2nc3cccc(C(F)(F)F)c3[nH]2)C1 (stereo not shown) [Compound 2-148, 4-(3-amino-3-methylpyrrolidin-1-yl)-5-[4-(trifluoromethyl)-1H-1,3-benzodiazol-2-yl]-[3,4′-bipyridine]-2′-carbonitrile]	–	< 10	100 to 1000	+++ (+++=≥500)	< 10	–
CC1(N)CCN(c2c(-c3cc(F)cc(OCC#N)c3)cncc2-c2nc3cccc(F)c3[nH]2)C1 (stereo not shown) [Compound 2-27, 2-{3-[4-(3-amino-3-methylpyrrolidin-1-yl)-5-(4-fluoro-1H-1,3-benzodiazol-2-yl)pyridin-3-yl]-5-fluorophenoxy}acetonitrile]	–	< 10	100 to 1000	++ (++=100 to 499)	< 10	–
Cc1cncc2nc(-c3cncc(-c4ccc(F)c(C#N)c4)c3N3CCC(C)(N)C3)[nH]c12 (stereo not shown) [Compound 2-149, 5-[4-(3-amino-3-methylpyrrolidin-1-yl)-5-{7-methyl-3H-imidazo[4,5-c]pyridin-2-yl}pyridin-3-yl]-2-fluorobenzonitrile]	–	< 10	100 to 1000	++ (++=100 to 499)	< 10	–
Cc1cccc2nc(-c3cncc(-c4cc(F)cc(C#N)c4)c3N3CC[C@@](N)(CO)C3)[nH]c12 [Compound 2-135, 3-{4-[(3S)-3-amino-3-(hydroxymethyl)pyrrolidin-1-yl]-5-(4-methyl-1H-1,3-benzodiazol-2-yl)pyridin-3-yl}-5-fluorobenzonitrile]	–	< 10	10 to 100	++ (++=100 to 499)	< 10	–
Cc1cccc2[nH]c(-c3cncc(-c4cc(F)c(F)c(C(N)=O)c4)c3N3CCC(C)(N)C3)nc12 (stereo not shown) [Compound 2-127, 5-[4-(3-Amino-3-methylpyrrolidin-1-yl)-5-(4-methyl-1H-1,3-benzodiazol-2-yl)pyridin-3-yl]-2,3-difluorobenzamide]	–	< 10	100 to 1000	++ (++=100 to 499)	< 10	–

The remaining lines, values ahead:

Fold selectivity for SST5 vs SST4 [1] [fold]	EC50 [2] [nM]	EC50 [3] [nM]	Fold selectivity for SST5 vs SST2 ([2]; SST5 over SST2, class symbols)	EC50 [2, 4] [nM]	Fold selectivity for SST5 vs SST2 ([2]; SST5 over SST2, given as number (comparison compounds))	Structure (SMILES)
–	< 10	100 to 1000	++ (++=100 to 499)	< 10	–	Cc1cc(F)cc(-c2cncc(-c3nc4cccc(Cl)c4[nH]3)c2N2CC[C@H](N)C2)c1 [Compound 2-197, (3S)-1-[3-(7-chloro-1H-1,3-benzodiazol-2-yl)-5-(3-fluoro-5-methylphenyl)pyridin-4-yl]pyrrolidin-3-amine]
–	> 1000	10 to 100	–	–	0.009	Cc1ccnc2nc(-c3cncc(-c4cccc(Cl)c4)c3N3CCC(N)CC3)[nH]c12
–	10 to 100	> 1000	+++ (+++=≥500)	10 to 100	–	NC(=O)c1cccc(-c2cncc(-c3nc4c(F)ccc(F)c4[nH]3)c2N2CC[C@H](N)C2)c1 [Compound 2-43, 3-{4-[(3S)-3-aminopyrrolidin-1-yl]-5-(4,7-difluoro-1H-1,3-benzodiazol-2-yl)pyridin-3-yl}benzamide]
–	< 10	100 to 1000	+++ (+++=≥500)	< 10	–	N#Cc1cccc(-c2cncc(-c3nc4cccc(Br)c4[nH]3)c2N2CC[C@H](N)C2)c1 [Compound 2-57, 3-{4-[(3S)-3-aminopyrrolidin-1-yl]-5-(4-bromo-1H-1,3-benzodiazol-2-yl)pyridin-3-yl}benzonitrile]
–	< 10	100 to 1000	+++ (+++=≥500)	< 10	–	N#Cc1cccc(-c2cncc(-c3nc4cccc(F)c4[nH]3)c2N2CC[C@H](N)C2)c1 [Compound 2-7, 3-{4-[(3S)-3-aminopyrrolidin-1-yl]-5-(4-fluoro-1H-1,3-benzodiazol-2-yl)pyridin-3-yl}benzonitrile]
–	< 10	100 to 1000	++ (++=100 to 499)	< 10	–	Cc1c(F)ccc2nc(-c3cncc(-c4cc(F)cc(C#N)c4)c3N3CC[C@H](N)C3)[nH]c12 [Compound 2-86, 3-{4-[(3S)-3-aminopyrrolidin-1-yl]-5-(5-fluoro-4-methyl-1H-1,3-benzodiazol-2-yl)pyridin-3-yl}-5-fluorobenzonitrile]
–	< 10	100 to 1000	+++ (+++=≥500)	< 10	–	N#Cc1cc(F)cc(-c2cncc(-c3nc4c(F)ccc(F)c4[nH]3)c2N2CC[C@H](N)C2)c1 [Compound 2-38, 3-{4-[(3S)-3-aminopyrrolidin-1-yl]-5-(4,7-difluoro-1H-1,3-benzodiazol-2-yl)pyridin-3-yl}-5-fluorobenzonitrile]
–	100 to 1000	> 1000	+ (+=10 to 99)	100 to 1000	–	Cc1cccc(-c2cncc(-c3nc4cccc(C)c4[nH]3)c2N2CC[C@@H](N)C2)c1 [Compound 2-199, (3R)-1-[3-(4-methyl-1H-1,3-benzodiazol-2-yl)-5-(3-methylphenyl)pyridin-4-yl]pyrrolidin-3-amine]
–	< 10	100 to 1000	++ (++=100 to 499)	< 10	–	Cc1cccc2nc(-c3cncc(-c4ccc(F)c(OC(F)(F)F)c4)c3N3CC[C@H](N)C3)[nH]c12 [Compound 2-141, (3S)-1-{3-[4-fluoro-3-(trifluoromethoxy)phenyl]-5-(4-methyl-1H-1,3-benzodiazol-2-yl)pyridin-4-yl}pyrrolidin-3-amine]
–	< 10	10 to 100	++ (++=100 to 499)	< 10	–	CC1(N)CCN(c2c(-c3cccc(Cl)c3)cncc2-c2nc3cccc(F)c3[nH]2)C1 (stereo not shown) [Compound 2-28, 1-[3-(3-chlorophenyl)-5-(4-fluoro-1H-1,3-benzodiazol-2-yl)pyridin-4-yl]-3-methylpyrrolidin-3-amine]
–	< 10	100 to 1000	+++ (+++=≥500)	< 10	–	Cc1cccc2nc(-c3cncc(-c4ccc(F)c(C(N)=O)c4)c3N3CCC(C)(N)C3)[nH]c12 (stereo not shown) [Compound 2-124, 5-[4-(3-amino-3-methylpyrrolidin-1-yl)-5-(4-methyl-1H-1,3-benzodiazol-2-yl)pyridin-3-yl]-2-fluorobenzamide]
–	< 10	100 to 1000	+++ (+++=≥500)	< 10	–	Cc1ccc(F)c2nc(-c3cncc(-c4ccc(F)c(C(N)=O)c4)c3N3CCC(C)(N)C3)[nH]c12 (stereo not shown) [Compound 2-125, 5-[4-(3-amino-3-methylpyrrolidin-1-yl)-5-(7-fluoro-4-methyl-1H-1,3-benzodiazol-2-yl)pyridin-3-yl]-2-fluorobenzamide]
–	< 10	> 1000	++ (++=100 to 499)	< 10	–	N#Cc1cc(F)cc(-c2cncc(-c3nc4ccc(Cl)cc4[nH]3)c2N2CC[C@H](N)C2)c1 [Compound 2-198, 3-{4-[(3S)-3-aminopyrrolidin-1-yl]-5-(6-chloro-1H-1,3-benzodiazol-2-yl)pyridin-3-yl}-5-fluorobenzonitrile]
